Values quoted from earlier work, collected in patent EP2231118B2, “SUSPENSION COMPRISING NON-MICRONIZED EZETIMIBE MICRO-PARTICLES” (KRKA, tovarna zdravil, d.d., Novo mesto, priority 2007, dated 2009).

solubility in water: practically insoluble
SMILES: O=C1[C@H](CC[C@H](O)c2ccc(F)cc2)[C@@H](c2ccc(O)cc2)N1c1ccc(F)cc1 [Ezetimibe, 1-(4-fluorophenyl)-3(R)-[3-(4-fluorophenyl)-3(S)-hydroxypropyl]-4(S)-(4-hydroxyphenyl)-2-azetidinone]
